The source of these data is patent US20120115869A1, “TETRAZOLE DERIVATIVES” (MERCK SERONO S.A., priority 2009, published 2012).

What is called IC50 is the concentration that gives 50% inhibition. A word on the clearance: it is a measure of how efficiently the substance is removed, as volume per time. Lower therefore signals inefficient removal. One may read the AUC as concentration integrated over time. Read a low AUC as low exposure. In general, bioavailability refers to the share of a dose that reaches the circulation, judged against a reference dose that is usually intravenous. Read a high bioavailability as much systemic uptake. Broadly, the Emax is the greatest response seen or fitted, relative to the assay's reference. The melting point is the temperature, or range, at which the solid turns liquid.

The target in data set [1] is T1, CRTH2 (DP2) (Homo sapiens, UniProt Q9Y5Y4).
T1 construct: host or cells: CHO cells
T1 sequence (Q9Y5Y4 1-395): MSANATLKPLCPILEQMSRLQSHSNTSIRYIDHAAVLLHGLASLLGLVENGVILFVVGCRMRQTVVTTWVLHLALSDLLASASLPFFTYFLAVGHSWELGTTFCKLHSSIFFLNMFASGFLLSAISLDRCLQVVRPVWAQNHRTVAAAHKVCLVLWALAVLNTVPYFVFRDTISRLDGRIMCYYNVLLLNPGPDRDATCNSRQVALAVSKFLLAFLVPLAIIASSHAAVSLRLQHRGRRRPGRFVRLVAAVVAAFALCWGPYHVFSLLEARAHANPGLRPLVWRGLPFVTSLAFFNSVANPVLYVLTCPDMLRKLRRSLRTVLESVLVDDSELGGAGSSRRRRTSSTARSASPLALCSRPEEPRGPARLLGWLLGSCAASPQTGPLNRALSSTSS
Put plainly: Radioligand binding Scintillation Proximity Assay ([3H]PGD2, hCRTH2-CHO cell membranes). The settings on record: 1.5 nM [3H]PGD2, hCRTH2-CHO cell membranes, SPA. A digest of the protocol:
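Membranes from CHO cells stably expressing human CRTH2, made by nitrogen cavitation and differential centrifugation. Compounds competed with [3H]PGD2 at 1% DMSO for 90 min with agitation at room temperature. Non-specific binding taken with 10 μM PGD2.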

The target of data set [2] is T2, CRTH2 (Homo sapiens, UniProt Q9Y5Y4).
T2 construct: expressed in transfected cells; host or cells: CHO cells
T2 sequence (Q9Y5Y4 1-395): T1 sequence (Q9Y5Y4 1-395)
Briefly: Cellular Dielectric Spectroscopy in CHO-CRTH2 cells. The settings on record: fixed concentration of PGD2 (EC80), read-out: IC50(μM) (CDS, antagonist). The format is cell-based. As to the method: Cellular Dielectric Spectroscopy (CDS) is a label-free technology based on the measurement of complex impedance changes (delta Z or dZ). Impedance (Z) is related to the ratio of voltage to current as described by Ohm's law (Z=V/I). In order to measure the changes in impedance that occur in response to receptor stimulation, mammalian cells are seeded onto a custom 96-well microtiter plate that contains electrodes at the bottom of each well Key contributors to the impedance measurements are changes in cell-substrate adherence, changes in cell shape and volume, and changes in cell-cell interactions. These factors individually or collectively affect the flow of current, influencing the magnitude and characteristics of the signal measured. G-protein coupled receptors ligand-induced activity can be measured using this technology and specific G protein coupling can be identified. Activities of reference agonist and antagonist molecules of CRTH2 have been measured using this assay and similar results were obtained compared to different functional assays.
CHO—CRTH2 cells are cultured in HAM's F12 (Lonza, Switzerland) supplemented with 10% foetal calf serum (PAA, Australia) and 400 μg/ml Geneticin. 100000 cells/well are seeded in standard 96 W Microplates (MDS Analytical Technologies) and incubated at 37° C. in 5% CO2 for 24 hours. Cells are washed twice with 135 μl of cell key buffer (Hank's Balanced Salt Solution 1× (HBSS) (Invitrogen) supplemented with 10 mM HEPES pH 7.4 in presence of 1% DMSO). […] Results are expressed as the amplitude between the highest and the lowest signal produced (max-min). Basal and maximum activities are measured, respectively in absence or presence of PGD2 (EC80).

Data set [3] in a line: In vivo pharmacokinetic evaluation in mouse. The settings on record: mice; for clearance / AUC / bioavailability: female, C57BL/6, mouse, plasma; for clearance: iv. The method, then: In order to study the pharmacokinetic (PK) profile of test compounds in vivo, Sprague Dawley male rats or C57BL/6 female mice were dosed intravenously or after oral gavage. For both species, test compounds were dosed in solution at 1 mg/kg for i.v. route (10% ethanol, 10% N,N-dimethylacetamide, 30% propylene glycol, 50% water, v/v) and in suspension at 5 mg/kg (0.5% carboxymethylcellulose suspension, containing 0.25% Tween 20 in water) for oral gavage. PK profile in rat was obtained from 3 animals per dosing route and mouse PK profile was determined from 3 animals for each time points. The volume of administration was 2 mL/kg for i.v. dosing in both species and either 5 mL/kg (rat) or 10 mL/kg (mouse) for oral gavage. Blood samples (100 μL/time point) were collected at 0.083 (5 min), 0.25, 0.5, 1, 4, 7 and 24 hours post-dose for i.v. dosing, and at 0.5, 1, 4, 7 and 24 h for oral dosing, into heparin-Li+ containing tubes. For rats, all blood samples were collected trough a catheter in the carotid artery (placed in the artery the day before the experiment), under light isoflurane anesthesia, and stored on ice until centrifugation and plasma isolation. For mouse, blood samples were collected from intracardiac puncture at sacrifice at each time point and processed as described above for the rat. Plasma samples were stored frozen until analysis (−20° C. to −70° C.). For bioanalysis, samples were processed by protein precipitation (acetonitrile, formic acid 0.1%, addition of 3 volumes) after addition of one internal standard and analysed using a sensitive and selective LC/MS/MS method. An aliquot of the resulting supernatant was subject to LC/MS/MS analysis using a reverse phase column (Waters Xterra, C8, (3.5 μm particle size, 2.1×50 mm) and a short gradient (1 min) from (Solvent A) 85% water, 15% acetonitrile and 0.1% formic acid to (Solvent B) 90% acetonitrile, 10% water and 0.1% formic acid followed by isocratic conditions of Solvent B for 3.5 min at 0.4 mL/min. Column effluent was monitored using a Sciex API 4000 triple quadrupole mass spectrometer with a Turbo V electrospray ion source. Unknown concentrations of test compounds were determined using a calibration curve ranging from 1 to 3000 ng/mL.

Data set [4] deals with eosinophils (PGD2-induced cell shape change). Briefly: PGD2-induced eosinophil cell shape assay in human whole blood. To be noted: 10 nM PGD2 final. Format: cell-based. The method, then:
The Compounds of Formula (I) were diluted in dimethylsulphoxide so that the total volume of dimethylsulfoxide was kept constant at 2% dimethylsulphoxide (Me2SO). Serial dilutions of 200 μM to 0.09 μM were prepared. Samples of 90 μl of human blood from healthy volunteers (Centre de Transfusion Sanguine de Genéve) were pre-incubated in polypropylene Falcon tubes (BD 352063) for 20 minutes in a water bath at 37° C. with 10 μl of diluted compounds. For CRTH2 activation, 100 μl PGD2 (Cayman 12010) at 20 nM was added (10 nM final) to each tube and cells were maintained at 37° C. For negative control cells were treated with PBS. After 10 minutes, cell activation was stopped with 120 μl Formaldehyde 10% (4% final, Fluka 41650) and cells were rested for 10 minutes at room temperature. Fixed cells were transferred into polypropylene tubes and then treated for 1 hour in a water bath at 37° C. with 2 ml of Triton-Surfact-Amps X-100 (Pierce 28314) at 0.166% (0.13% Triton final). After several washes with PBS (red cells lysed progressively during washes, two washes are necessary), cells were analyzed by flow cytometry on a FACSCalibur. In one embodiment, the compounds of Formula (I) of the present invention are capable of blocking the cell shape change of eosinophils induced by PGD2 in Whole Blood.

For data set [5], the target named is T2, CRTH2. Briefly: [35S]GTPγS binding assay on CHO-CRTH2 cell membranes. The format is biochemical. The settings on record: without addition of PGD2; 100% of Emax being the activity measured by the addition of 1 μM of PGD2. As to the method: Adherent CHO cells expressing hCRTH2 (Euroscreen, Belgium) were cultured in 225 cm^2 cell culture flasks (Corning, USA) in 30 ml of medium. After two rinses of phosphate buffered saline (PBS), cells were harvested in 10 ml of PBS containing 1 mM EDTA, centrifuged at 500×g for 5 min at 4° C. and frozen at −80° C. The pellet was re-suspended in 50 mM Tris-HCl, pH 7.4, 2 mM EDTA, 250 mM Sucrose, containing protease inhibitor cocktail tablets, (Complete EDTA-free, Roche, Germany) and incubated 30 min at 4° C. Cells were disrupted by nitrogen cavitation (Parr Instruments, USA) at 4° C. (800 p.s.i. for 30 min), and centrifuged at 500×g for 10 min at 4° C. Pellet containing nuclei and cellular debris was discarded and supernatant was centrifuged 60 min at 4° C. at 45000×g. Membrane pellet was re-suspended in storage buffer (10 mM HEPES/KOH pH 7.4, 1 mM EDTA, 250 mM sucrose, protease inhibitor cocktail tablets) using Dounce homogenization and frozen in liquid nitrogen, and stored at 80° C.
The [^35S]GTPγS assay measures the increase in guanine nucleotide exchange at G-proteins in cell membranes, resulting from agonist (PGD2) binding to CRTH2. […] Briefly, Compounds of Formula (I) are incubated in 96-well scintillating white polystyrene plates (Perkin Elmer, USA) in a final volume of 200 μl containing 20 mM HEPES/KOH pH 7.4, 3 mM MgCl2, 10 μg/ml Saponin, 5 μM GDP, 75 mM NaCl and 2% of dimethylsulphoxide (DMSO). […] After 60 min incubation at 30° C., reaction is stopped by centrifugation at 700×g, at 4° C. for 10 minutes and supernatant is removed. […] For IC50 determination, increasing concentrations of compounds are incubated in presence of a fixed concentration of PGD2 (EC80). For EC50 measurements, compounds are incubated without addition of PGD2. Basal [^35S]GTPγS activity is determined without addition of any ligands or compounds. 100% [^35S]GTPγS activity is measured by the addition of 1 μM of PGD2.

Take `C#Cc1cccc(CN(C(=O)CCCC)c2cc(-c3nnn[nH]3)ccc2F)c1` [Example 1, N-(3-ethynylbenzyl)-N-[2-fluoro-5-(1H-tetrazol-5-yl)phenyl]pentanamide]: the IC50 in data set [1] turned out to be 12 nM; in data set [2], 0.096 µM. Moreover, the clearance in data set [3] (i.v. 1 mg/Kg) was 1.67 mL/min/kg. Also, in data set [3] (oral gavage 5 mg/Kg), the AUC amounted to 12200 ng·h/mL. The compound further came in with a bioavailability in data set [3] (po 5 mg/Kg vs iv 1 mg/Kg) of 33%.

In the case of `CCCCC(=O)N(Cc1ccc2c(c1)OCCO2)c1cccc(-c2nnn[nH]2)c1` [Example 5, N-(2,3-dihydro-1,4-benzodioxin-6-ylmethyl)-N-[3-(1H-tetrazol-5-yl)phenyl]pentanamide], the IC50 in data set [1] was 8.8 nM; in data set [2], 0.076 µM; in data set [4], 0.536 µM.

Take `CCC(=O)N(Cc1ccc2c(c1)OCCO2)c1cc(-c2nnn[nH]2)ccc1F` [Example 9, N-(2,3-dihydro-1,4-benzodioxin-6-ylmethyl)-N-[2-fluoro-5-(1H-tetrazol-5-yl)phenyl]propanamide]: the IC50 in data set [1] worked out at 15 nM; in data set [4], 1.17 µM.

As to `CCCCC(=O)N(Cc1ccc2c(c1)OCCO2)c1cc(F)cc(-c2nnn[nH]2)c1` [Example 11, N-(2,3-dihydro-1,4-benzodioxin-6-ylmethyl)-N-[3-fluoro-5-(1H-tetrazol-5-yl)phenyl]pentanamide], the IC50 in data set [1] came to 2.3 nM; in data set [4], 0.039 µM. The Emax in data set [5] is -14.9%.

For the compound `CCCCC(=O)N(Cc1cccc(OC)c1)c1cccc(-c2nnn[nH]2)c1` [Example 13, N-(3-methoxybenzyl)-N-[3-(1H-tetrazol-5-yl)phenyl]pentanamide], the figures for the IC50 in data set [1] and in data set [4] were 53 nM and 0.914 µM, respectively.

For the compound `CCCCC(=O)N(Cc1ccc(OC)cc1)c1cc(Cl)cc(-c2nnn[nH]2)c1` [Example 46, N-[3-chloro-5-(1H-tetrazol-5-yl)phenyl]-N-(4-methoxybenzyl)pentanamide], the IC50 came to 4.2 nM in data set [1] and 0.245 µM in data set [4]. Besides, in data set [5], the Emax is -9.5%.

Regarding `CCC(=O)N(Cc1ccc(OC(F)(F)F)c(Cl)c1)c1cc(F)cc(-c2nnn[nH]2)c1` [Example 56, N-[3-chloro-4-(trifluoromethoxy)benzyl]-N-[3-fluoro-5-(1H-tetrazol-5-yl)phenyl]propanamide], the figures for the IC50 in data set [1] and in data set [4] were 24 nM and 0.082 µM, respectively. Also, the Emax in data set [5] was -13%. In addition, the clearance in data set [3] (i.v. 1 mg/Kg) is 15 mL/min/kg. The compound also displayed an AUC in data set [3] (oral gavage 5 mg/Kg) of 1910 ng·h/mL. Besides, the bioavailability in data set [3] (po 5 mg/Kg vs iv 1 mg/Kg) was determined as 36%.

`CCC(=O)N(Cc1ccc(OC(F)(F)F)cc1)c1cc(Cl)cc(-c2nnn[nH]2)c1` [Example 57, N-[3-chloro-5-(1H-tetrazol-5-yl)phenyl]-N-[4-(trifluoromethoxy)benzyl]propanamide] came in with a melting point of 144 °C. In addition, the IC50 in data set [1] came out at 15 nM. Further, the IC50 in data set [4] is 0.233 µM.

On to `CCC(=O)N(Cc1ccc(C(F)(F)F)cc1)c1cc(F)cc(-c2nnn[nH]2)c1` [Example 58, N-[3-fluoro-5-(1H-tetrazol-5-yl)phenyl]-N-[4-(trifluoromethyl)benzyl]propanamide], for which the IC50 was 7.1 nM in data set [1] and 0.102 µM in data set [4]. Also, the Emax in data set [5] was -8.1%. Moreover, the “Clearance iv (1 mg/Kg)” value in data set [3] (i.v. 1 mg/Kg) was found to be 5 mL/min/kg. Moreover, the “AUC po (5 mg/Kg)” value in data set [3] (oral gavage 5 mg/Kg) was 11212 ng·h/mL. The Oral bioavailability in data set [3] (po 5 mg/Kg vs iv 1 mg/Kg) is listed as 76%.
